Results as given in US20150274719A1, “AMINO-SUBSTITUTED IMIDAZO[1,2-A]PYRIDINECARBOXAMIDES AND THEIR USE” (BAYER PHARMA AKTIENGESELLSCHAFT, priority 2012, published 2015).

Biological target: T1, recombinant guanylate cyclase reporter cell line (Rattus norvegicus, UniProt P19686+P20595)
T1 construct: expressed in transfected cells; host or cells: recombinant reporter cell line
T1 sequence (P19686 1-690): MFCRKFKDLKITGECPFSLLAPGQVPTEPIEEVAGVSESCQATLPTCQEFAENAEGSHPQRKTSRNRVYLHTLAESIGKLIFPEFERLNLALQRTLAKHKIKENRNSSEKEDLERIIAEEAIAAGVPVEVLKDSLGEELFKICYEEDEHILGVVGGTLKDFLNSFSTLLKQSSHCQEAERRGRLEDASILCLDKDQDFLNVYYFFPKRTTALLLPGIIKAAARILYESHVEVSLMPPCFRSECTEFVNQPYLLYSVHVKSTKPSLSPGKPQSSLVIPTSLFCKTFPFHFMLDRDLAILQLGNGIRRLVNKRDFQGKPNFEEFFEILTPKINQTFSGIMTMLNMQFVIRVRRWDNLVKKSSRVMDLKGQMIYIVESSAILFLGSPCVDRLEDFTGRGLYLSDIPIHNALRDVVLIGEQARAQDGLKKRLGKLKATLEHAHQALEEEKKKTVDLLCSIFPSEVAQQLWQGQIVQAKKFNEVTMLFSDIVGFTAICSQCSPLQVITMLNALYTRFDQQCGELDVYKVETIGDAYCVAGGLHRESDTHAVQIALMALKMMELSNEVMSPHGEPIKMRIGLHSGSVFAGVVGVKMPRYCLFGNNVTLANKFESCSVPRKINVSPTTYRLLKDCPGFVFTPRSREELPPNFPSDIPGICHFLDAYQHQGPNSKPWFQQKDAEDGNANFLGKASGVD
T1 sequence (P20595 1-619): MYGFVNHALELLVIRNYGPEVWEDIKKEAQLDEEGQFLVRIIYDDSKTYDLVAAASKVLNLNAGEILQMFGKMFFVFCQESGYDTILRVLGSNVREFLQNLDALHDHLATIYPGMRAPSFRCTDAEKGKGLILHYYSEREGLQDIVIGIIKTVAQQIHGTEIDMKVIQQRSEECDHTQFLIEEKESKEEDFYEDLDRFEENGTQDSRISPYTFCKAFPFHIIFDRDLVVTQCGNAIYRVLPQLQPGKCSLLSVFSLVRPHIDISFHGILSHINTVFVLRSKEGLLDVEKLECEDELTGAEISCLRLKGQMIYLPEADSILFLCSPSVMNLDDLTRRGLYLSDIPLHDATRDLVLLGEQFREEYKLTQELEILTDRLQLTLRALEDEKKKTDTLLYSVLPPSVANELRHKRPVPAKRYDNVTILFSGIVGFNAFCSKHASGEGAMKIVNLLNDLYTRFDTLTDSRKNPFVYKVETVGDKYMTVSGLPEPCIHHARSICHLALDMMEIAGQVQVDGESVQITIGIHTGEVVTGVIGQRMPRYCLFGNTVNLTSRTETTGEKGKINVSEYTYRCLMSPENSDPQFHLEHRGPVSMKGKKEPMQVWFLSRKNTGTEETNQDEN
Test: Action on recombinant guanylate cyclase reporter cell line
Format: cell-based
Settings: in some cases mean values from individual determinations
Outline: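 Each compound is applied to a cell line engineered with a reporter for recombinant guanylate cyclase. The minimal effective concentration is then noted, in part as a mean across separate determinations.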

Structure (SMILES)	MEC (minimal effective concentration) [µM]
Cc1nc2c(OCc3c(F)ccc(F)c3F)cccn2c1C(=O)NC(CN)c1ccc(F)c(F)c1 (stereo not drawn) [Example 100, ent-N-[2-amino-1-(3,4-difluorophenyl)ethyl]-2-methyl-8-[(2,3,6-trifluorobenzyl)oxy]imidazo[1,2-a]pyridine-3-carboxamide]	0.30
Cc1nc2c(OCc3c(F)cc(F)cc3F)cccn2c1C(=O)NC(CN)c1ccc(F)c(F)c1 (stereo not drawn) [Example 101, ent-N-[2-amino-1-(3,,4-difluorophenyl)ethyl]-2-methyl-8-[(2,4,6-trifluorobenzyl)oxy]imidazo[1,2-a]pyridine-3-carboxamide]	1.00
Cc1nc2c(OCc3c(F)cccc3Cl)cccn2c1C(=O)NC(CN)c1ccc(F)c(F)c1 (stereo not drawn) [Example 102, ent-N-[2-amino-1-(3,4-difluorophenyl)ethyl]-8-[(2-chloro-6-fluorobenzyl)oxy]-2-methylimidazo[1,2-a]pyridine-3-carboxamide]	1.00
Cc1nc2c(OCc3c(F)cccc3F)cccn2c1C(=O)NCC(C)(C)CN [Example 103, N-(3-amino-2,2-dimethylpropyl)-8-[(2,6-difluorobenzyl)oxy]-2-methylimidazo[1,2-a]-pyridine-3-carboxamide]	3.00
Cc1nc2c(OCc3c(F)cccc3F)cc(Cl)cn2c1C(=O)NCCC(C)(C)N [Example 104, N-(3-Amino-3-methylbutyl)-6-chloro-8-[(2,6-difluorobenzyl)oxy]-2-methylimidazo[1,2-a]-pyridine-3-carboxamide]	0.30
Cc1cc(OCc2c(F)cccc2F)c2nc(C)c(C(=O)NCCC(C)(C)N)n2c1 [Example 114, N-(3-amino-3-methylbutyl)-8-[(2,6-difluorobenzyl)oxy]-2,6-dimethylimidazo[1,2-a]-pyridine-3-carboxamide]	0.30
Cc1cc(OCc2c(F)cccc2F)c2nc(C)c(C(=O)NC[C@@H]3CCCN3)n2c1 [Example 115, 8-[(2,6-difluorobenzyl)oxy]-2,6-dimethyl-N-[(2S)-pyrrolidin-2-ylmethyl]imidazo[1,2-a]-pyridine-3-carboxamide]	1.00
Cc1cc(OCc2c(F)cccc2F)c2nc(C)c(C(=O)NC[C@H]3CCCN3)n2c1 [Example 116, 8-[(2,6-difluorobenzyl)oxy]-2,6-dimethyl-N-[(2R)-pyrrolidin-2-ylmethyl]imidazo[1,2-a]-pyridine-3-carboxamide]	3.00
Cc1nc2c(OCc3c(F)cccc3F)cccn2c1C(=O)NCCC(C)(C)N [Example 117, N-(3-amino-3-methylbutyl)-8-[(2,6-difluorobenzyl)oxy]-2-methylimidazo[1,2-a]-pyridine-3-carboxamide]	1.00
Cc1nc2c(OCc3c(F)cccc3F)cccn2c1C(=O)NC(C)[C@H](C)N (stereo partly drawn) [Example 120, N-[(3S)-3-Aminobutan-2-yl]-8-[(2,6-difluorobenzyl)oxy]-2-methylimidazo[1,2-a]pyridine-3-carboxamide]	0.30
Cc1nc2c(OCc3c(F)cccc3F)cccn2c1C(=O)NC(C)[C@@H](C)N (stereo partly drawn) [Example 121, N-[(3R)-3-Aminobutan-2-yl]-8-[(2,6-difluorobenzyl)oxy]-2-methylimidazo[1,2-a]pyridine-3-carboxamide]	0.30
Cc1nc2c(OCc3c(F)cccc3F)cccn2c1C(=O)NC(CN)COc1ccc(F)c(F)c1 (stereo not drawn) [Example 124, ent-N-[1-Amino-3-(3,4-difluorophenoxyl)propan-2-yl]-8-[(2,6-difluorobenzyl)oxy]-2-methyl-imidazo[1,2-a]pyridine-3-carboxamide ditrifluoroacetate]	1.00
